# ChEMBL document CHEMBL4138123, “Design, synthesis and biological evaluation of novel pyrazolochalcones as potential modulators of PI3K/Akt/mTOR pathway and inducers of apoptosis in breast cancer cells” (Eur J Med Chem, 2017)
# Tests used:
# Assay type in all cases: functional
# RPMI-8226 [1] = assay: Cytotoxicity against human RPMI8226 cells assessed as growth inhibition after 48 hrs by sulforhodamine B assay; conditions: RPMI-8226, 48 h
# MOLT-4 = assay: Cytotoxicity against human MOLT4 cells assessed as cell growth at 0.01 uM after 48 hrs by sulforhodamine B assay relative to control; conditions: MOLT-4, 48 h, read-out: Activity
# HCT-116 [2] = assay: Cytotoxicity against human HCT116 cells assessed as growth inhibition after 48 hrs by sulforhodamine B assay; conditions: HCT-116, 48 h
# HT-29 = assay: Cytotoxicity against human HT-29 cells assessed as cell growth at 0.01 uM after 48 hrs by sulforhodamine B assay relative to control; conditions: HT-29, 48 h, read-out: Activity
# OVCAR-3 = assay: Cytotoxicity against human OVCAR3 cells assessed as cell growth at 0.1 uM after 48 hrs by sulforhodamine B assay relative to control; conditions: OVCAR-3, 48 h, read-out: Activity
# NCI-H23 = assay: Cytotoxicity against human NCI-H23 cells assessed as growth inhibition after 48 hrs by sulforhodamine B assay; conditions: NCI-H23, 48 h; for CC50: read-out: LC50 (the source's name)
# OVCAR-5 [3] = assay: Cytotoxicity against human OVCAR5 cells assessed as growth inhibition after 48 hrs by sulforhodamine B assay; conditions: OVCAR-5, 48 h
# 786-0 = assay: Cytotoxicity against human 786-0 cells assessed as cell growth at 0.1 uM after 48 hrs by sulforhodamine B assay relative to control; conditions: 786-0, 48 h, read-out: Activity
# RPMI-8226 [4] = assay: Cytotoxicity against human RPMI8226 cells assessed as cell growth at 1 uM after 48 hrs by sulforhodamine B assay relative to control; conditions: RPMI-8226, 48 h, read-out: Activity
# T47D [5] = assay: Cytotoxicity against human T47D cells assessed as cell growth at 0.01 uM after 48 hrs by sulforhodamine B assay relative to control; conditions: read-out: Activity
# COLO 205 [6] = assay: Cytotoxicity against human COLO205 cells assessed as cell growth at 0.01 uM after 48 hrs by sulforhodamine B assay relative to control; conditions: COLO 205, 48 h, read-out: Activity
# T47D [7] = assay: Cytotoxicity against human T47D cells assessed as cell growth at 0.1 uM after 48 hrs by sulforhodamine B assay relative to control; conditions: read-out: Activity
# SF-268 = assay: Cytotoxicity against human SF268 cells assessed as growth inhibition after 48 hrs by sulforhodamine B assay; conditions: SF-268, 48 h; for CC50: read-out: LC50 (the source's name)
# NCI-H460 = assay: Cytotoxicity against human NCI-H460 cells assessed as growth inhibition after 48 hrs by sulforhodamine B assay; conditions: NCI-H460, 48 h
# UACC-257 = assay: Cytotoxicity against human UACC257 cells assessed as cell growth at 0.1 uM after 48 hrs by sulforhodamine B assay relative to control; conditions: UACC-257, 48 h, read-out: Activity
# PC-3 = assay: Cytotoxicity against human PC3 cells assessed as cell growth at 0.1 uM after 48 hrs by sulforhodamine B assay relative to control; conditions: PC-3, 48 h, read-out: Activity
# ACHN = assay: Cytotoxicity against human ACHN cells assessed as cell growth at 10 uM after 48 hrs by sulforhodamine B assay relative to control; conditions: read-out: Activity
# HOP-62 = assay: Cytotoxicity against human HOP62 cells assessed as cell growth at 1 uM after 48 hrs by sulforhodamine B assay relative to control; conditions: HOP-62, 48 h, read-out: Activity
# SR = assay: Cytotoxicity against human SR cells assessed as growth inhibition after 48 hrs by sulforhodamine B assay; conditions: for CC50: read-out: LC50 (the source's name)
# HCC 2998 = assay: Cytotoxicity against human HCC2998 cells assessed as cell growth at 0.1 uM after 48 hrs by sulforhodamine B assay relative to control; conditions: HCC 2998, 48 h, read-out: Activity
# Hs-578T = assay: Cytotoxicity against human Hs 578T cells assessed as cell growth at 1 uM after 48 hrs by sulforhodamine B assay relative to control; conditions: read-out: Activity
# OVCAR-5 [8] = assay: Cytotoxicity against human OVCAR5 cells assessed as cell growth at 0.01 uM after 48 hrs by sulforhodamine B assay relative to control; conditions: OVCAR-5, 48 h, read-out: Activity
# CCRF-CEM = assay: Cytotoxicity against human CCRF-CEM cells assessed as growth inhibition after 48 hrs by sulforhodamine B assay
# SW-620 = assay: Cytotoxicity against human SW620 cells assessed as cell growth at 1 uM after 48 hrs by sulforhodamine B assay relative to control; conditions: SW-620, 48 h, read-out: Activity
# HL-60(TB) [9] = assay: Cytotoxicity against human HL-60(TB) cells assessed as cell growth at 10 uM after 48 hrs by sulforhodamine B assay relative to control; conditions: HL-60, 48 h, read-out: Activity
# SK-MEL-5 = assay: Cytotoxicity against human SK-MEL-5 cells assessed as growth inhibition after 48 hrs by sulforhodamine B assay; conditions: SK-MEL-5, 48 h
# HL-60(TB) [10] = assay: Cytotoxicity against human HL-60(TB) cells assessed as cell growth at 1 uM after 48 hrs by sulforhodamine B assay relative to control; conditions: HL-60, 48 h, read-out: Activity
# RPMI-8226 [11] = assay: Cytotoxicity against human RPMI8226 cells assessed as cell growth at 10 uM after 48 hrs by sulforhodamine B assay relative to control; conditions: RPMI-8226, 48 h, read-out: Activity
# OVCAR-4 = assay: Cytotoxicity against human OVCAR4 cells assessed as cell growth at 100 uM after 48 hrs by sulforhodamine B assay relative to control; conditions: OVCAR-4, 48 h, read-out: Activity
# NCI-H322M = assay: Cytotoxicity against human NCI-H322M cells assessed as cell growth at 1 uM after 48 hrs by sulforhodamine B assay relative to control; conditions: read-out: Activity
# HCT-116 [12] = assay: Cytotoxicity against human HCT116 cells assessed as cell growth at 1 uM after 48 hrs by sulforhodamine B assay relative to control; conditions: HCT-116, 48 h, read-out: Activity
# K562 = assay: Cytotoxicity against human K562 cells assessed as growth inhibition after 48 hrs by sulforhodamine B assay; conditions: K562, 48 h
# M14 = assay: Cytotoxicity against human M14 cells assessed as growth inhibition after 48 hrs by sulforhodamine B assay; conditions: M14, 48 h
# COLO 205 [13] = assay: Cytotoxicity against human COLO205 cells assessed as cell growth at 100 uM after 48 hrs by sulforhodamine B assay relative to control; conditions: COLO 205, 48 h, read-out: Activity
# DU-145 [14] = assay: Cytotoxicity against human DU145 cells assessed as cell growth at 10 uM after 48 hrs by sulforhodamine B assay relative to control; conditions: DU-145, 48 h, read-out: Activity
# DU-145 [15] = assay: Cytotoxicity against human DU145 cells assessed as cell growth at 0.1 uM after 48 hrs by sulforhodamine B assay relative to control; conditions: DU-145, 48 h, read-out: Activity
structure (smiles),measurement,setting,value
COc1cc(-c2cc(/C=C/C(=O)c3ccc(F)c(F)c3)[nH]n2)cc(OC)c1OC,LC50,RPMI-8226 [1],> 100 µM
same,TGI,RPMI-8226 [1],6.01 µM
same,growth at 0.01 µM,MOLT-4,108%
same,LC50,HCT-116 [2],94.2 µM
same,TGI,HCT-116 [2],13.9 µM
same,growth at 0.01 µM,HT-29,104%
same,growth at 0.1 µM,OVCAR-3,104%
same,TGI,NCI-H23,8.5 µM
same,CC50,NCI-H23,> 100 µM
same,LC50,OVCAR-5 [3],> 100 µM
same,TGI,OVCAR-5 [3],33.8 µM
same,growth at 0.1 µM,786-0,95%
same,growth at 1 µM,RPMI-8226 [4],73%
same,growth at 0.01 µM,T47D [5],95%
same,growth at 0.01 µM,COLO 205 [6],101%
same,growth at 0.1 µM,T47D [7],93%
same,TGI,SF-268,> 100 µM
same,CC50,SF-268,> 100 µM
same,LC50,NCI-H460,80.4 µM
same,TGI,NCI-H460,8.24 µM
same,growth at 0.1 µM,UACC-257,92%
same,growth at 0.1 µM,PC-3,93%
same,growth at 10 µM,ACHN,2%
same,growth at 1 µM,HOP-62,94%
same,TGI,SR,> 100 µM
same,CC50,SR,> 100 µM
same,growth at 0.1 µM,HCC 2998,92%
same,growth at 1 µM,Hs-578T,86%
same,growth at 0.01 µM,OVCAR-5 [8],99%
same,LC50 (concentration killing 50% of cells),CCRF-CEM,> 100 µM
same,TGI,CCRF-CEM,47.2 µM
same,growth at 1 µM,SW-620,93%
same,growth at 10 µM,HL-60(TB) [9],-29%
same,LC50 (concentration killing 50% of cells),SK-MEL-5,26.7 µM
same,TGI,SK-MEL-5,6.41 µM
same,growth at 1 µM,HL-60(TB) [10],101%
same,growth at 10 µM,RPMI-8226 [11],-21%
same,growth at 100 µM,OVCAR-4,-3%
same,growth at 1 µM,NCI-H322M,86%
same,growth at 1 µM,HCT-116 [12],113%
same,LC50 (concentration killing 50% of cells),K562,> 100 µM
same,TGI,K562,16.5 µM
same,LC50 (concentration killing 50% of cells),M14,> 100 µM
same,TGI,M14,11.9 µM
same,growth at 100 µM,COLO 205 [13],-99%
COc1ccc(-c2cc(/C=C/C(=O)c3cc(OC)c(OC)c(OC)c3)[nH]n2)cc1OC,GI50,RPMI-8226 [1],0.29 µM
same,LC50,RPMI-8226 [1],> 100 µM
same,TGI,RPMI-8226 [1],1.66 µM
same,growth at 0.01 µM,MOLT-4,99%
same,GI50,HCT-116 [2],0.42 µM
same,LC50,HCT-116 [2],5.18 µM
same,TGI,HCT-116 [2],1.79 µM
same,growth at 0.01 µM,HT-29,101%
same,growth at 10 µM,DU-145 [14],-55%
same,growth at 0.1 µM,OVCAR-3,100%
same,GI50,NCI-H23,1.97 µM
same,TGI,NCI-H23,4.91 µM
same,CC50,NCI-H23,> 100 µM
same,GI50,OVCAR-5 [3],1.76 µM
same,LC50,OVCAR-5 [3],13.7 µM
same,TGI,OVCAR-5 [3],4.31 µM
same,growth at 0.1 µM,786-0,91%
same,growth at 1 µM,RPMI-8226 [4],11%
same,growth at 0.01 µM,T47D [5],91%
same,growth at 0.01 µM,COLO 205 [6],99%
same,growth at 0.1 µM,T47D [7],83%
same,GI50,SF-268,1.68 µM
same,TGI,SF-268,3.9 µM
same,CC50,SF-268,9.03 µM
same,GI50,NCI-H460,1.04 µM
same,LC50,NCI-H460,29.9 µM
same,TGI,NCI-H460,3.6 µM
same,growth at 0.1 µM,UACC-257,97%
same,growth at 0.1 µM,PC-3,93%
same,growth at 10 µM,ACHN,-95%
same,growth at 1 µM,HOP-62,71%
same,GI50,SR,0.2 µM
same,TGI,SR,2.26 µM
same,CC50,SR,> 100 µM
same,growth at 0.1 µM,HCC 2998,100%
same,growth at 1 µM,Hs-578T,86%
same,growth at 0.01 µM,OVCAR-5 [8],102%
same,GI50,CCRF-CEM,0.34 µM
same,LC50 (concentration killing 50% of cells),CCRF-CEM,> 100 µM
same,TGI,CCRF-CEM,3.13 µM
same,growth at 1 µM,SW-620,70%
same,growth at 10 µM,HL-60(TB) [9],2%
same,GI50,SK-MEL-5,1.58 µM
same,LC50 (concentration killing 50% of cells),SK-MEL-5,5.44 µM
same,TGI,SK-MEL-5,2.93 µM
same,growth at 1 µM,HL-60(TB) [10],64%
same,growth at 10 µM,RPMI-8226 [11],-38%
same,growth at 1 µM,NCI-H322M,82%
same,growth at 0.1 µM,DU-145 [15],103%
same,growth at 1 µM,HCT-116 [12],27%
same,GI50,K562,0.73 µM
same,LC50 (concentration killing 50% of cells),K562,> 100 µM
same,TGI,K562,9.71 µM
same,GI50,M14,1.8 µM
same,LC50 (concentration killing 50% of cells),M14,7.54 µM
same,TGI,M14,3.69 µM
same,growth at 100 µM,COLO 205 [13],-88%
